{"source": "paper PMC5668067", "about": "“Phase I dose-escalation study of the c-Met tyrosine kinase inhibitor SAR125844 in Asian patients with advanced solid tumors, including patients with MET-amplified gastric cancer” (Oncotarget, 2017)", "origin": "cited, not measured here", "key": {"[1]": {"system": "MET-amplified gastroesophageal junction, gastric, or esophageal tumors", "parameters": "method as in ref 16 = [16]; 16 Kwak EL LoRusso P Hamid O Janku F Kittaneh M Catenacci DV Chan E Bekaii-Saab TS Amore B Hwang YC Tang R Ngarmchamnanrith G Hong DS Clinical activity of AMG 337, an oral MET kinase inhibitor, in adu", "conditions": "eight of 13 patients with MET-amplified tumors; cited from earlier work"}, "[2]": {"system": "highly MET-amplified (MET:CEP7 >5) gastroesophageal cancers", "parameters": "method as in PMID 22042947", "conditions": "cited from earlier work"}, "[3]": {"system": "unselected gastric cancer patients", "conditions": "cited from earlier work"}, "[4]": {"system": "gastric or gastroesophageal junction cancer", "conditions": "cited from earlier work"}}}
{"molecule": "COCCOc1cnc2ccn([C@H](C)c3nnc4c(F)cc(-c5cnn(C)c5)cn34)c(=O)c2c1", "note": "[AMG 337]", "values": [{"measurement": "partial or near complete response", "setting": "[1]", "value": 62, "unit": "%"}]}
{"molecule": "C[C@@H](Oc1cc(-c2cnn(C3CCNCC3)c2)cnc1N)c1c(Cl)ccc(F)c1Cl", "note": "[crizotinib]", "values": [{"measurement": "patients with tumor shrinkage", "setting": "[2]", "value": "two of four"}]}
{"molecule": "COc1cc2c(Oc3ccc(NC(=O)C4(C(=O)Nc5ccc(F)cc5)CC4)cc3F)ccnc2cc1OCCCN1CCOCC1", "note": "[foretinib]", "values": [{"measurement": "objective responses", "setting": "[3]", "value": "no objective responses"}]}
{"molecule": "O=C1NC(=O)[C@@H](c2cn3c4c(cccc24)CCC3)[C@@H]1c1c[nH]c2ccccc12", "note": "[tivantinib]", "values": [{"measurement": "objective responses", "setting": "[3]", "value": "no objective responses"}]}
{"molecule": "onartuzumab: an anti-c-Met antibody", "values": [{"measurement": "survival benefit of addition to chemotherapy", "setting": "[4]; regardless of c-Met expression", "value": "no survival advantage"}]}
{"molecule": "rilotumumab: an anti-HGF antibody", "values": [{"measurement": "clinical benefit combined with chemotherapy", "setting": "[4]; c-Met-positive gastric or gastroesophageal junction cancer", "value": "failed to show clinical benefit"}]}
